In patent US12383692B2, “Systems and methods for synthesis of nitric oxide” (The General Hospital Corporation, priority 2014, dated 2025):

Legend:
Format in all cases: in vivo
[1] = test system: anesthetized lamb with acute pulmonary hypertension due to U46619 infusion; experiment: Continuous NO generation with respiratory system 10 (NO generator 14) in anesthetized lambs with U46619-induced pulmonary hypertension
Excerpt: (§1) Animal studies were approved by the Institutional Animal Care and Use Committee of Massachusetts General Hospital (Boston, MA). Eight lambs (New England Ovis, Dover, NH) weighing 32±2 kg were studied. General anesthesia was induced with 5% inhaled isoflurane (1-chloro-2,2,2-trifluoroethyldifluromethyl ether, Baxter, Deerfield, IL) in oxygen delivered via a mask and then maintained with 1-4% isoflurane in 50% oxygen during surgery. After tracheal intubation, the lambs were instrumented with indwelling carotid artery pulmonary artery catheters. All hemodynamic measurements were performed in anesthetized lambs ventilated with a mechanical ventilator (model 7200, Puritan Bennett, Pleasanton, CA) at a tidal volume of […] and rate of 12-15 breaths/min.
(§2) To induce pulmonary hypertension, a potent pulmonary vasoconstrictor U46619 (Cayman Chemical, Ann Arbor, MI), the analog of the endoperoxide prostaglandin H2, was infused intravenously at a rate of 0.8-0.9 μg/kg/min to increase pulmonary arterial pressure (PAP) to 30 mmHg. The mean arterial pressure and PAP were continuously monitored using a Gould 6600 amplifier system (Gould Electronics, Inc., Eastlake, OH). Pulmonary capillary wedge pressure, heart rate, and cardiac output were intermittently measured at baseline, during U46619 infusion, and before and after inhalation of NO generated using either the respiratory system 10, the respiratory system 100, or NO delivered and diluted at the same level from a compressed gas cylinder. Cardiac output was assessed by thermal dilution as the average of three measurements after an intravenous bolus injection of 10 mL of ice-cold saline solution. Pulmonary vascular resistance index (PVRI), as well as cardiac index (CI), were calculated using standard formulae. The gas cylinder contained 500 ppm NO diluted in nitrogen.
The respiratory system 10 was tested with an anesthetized lamb as the patient 11. A baseline (BL) was generated then the NO generator 14 of the respiratory system 10 was triggered to continuously spark (i.e., generate NO) after […] was administered for 30 minutes. The NO was pumped at 5 L/min into the inspiratory line 18. The electrodes 36 were fabricated from iridium-platinum. Once triggered, the controller 33 was configured to spark the electrodes 36 for 4 minutes using the following settings: B=35, N=25, P=240 μs; and H=100 μs, which produced approximately 40 ppm of NO, and then the controller 33 stopped the NO generator 14. The test was performed when 21% oxygen was supplied to the inlet 24 of the NO generator 14, when 50% oxygen was supplied to the inlet 24 of the NO generator 14, and compared with NO supplied at the same concentration to the anesthetized lamb from a gas cylinder. […]

[2] = test system: anesthetized lamb with acute pulmonary hypertension; experiment: Intermittent NO generation with respiratory system 100 (NO generator 102) in anesthetized lambs with U46619-induced pulmonary hypertension; conditions: 4 minutes
Excerpt: as §1, §2
The respiratory system 100 was tested with an anesthetized lamb as the patient 11. A baseline (BL) was generated then the NO generator 102 of the respiratory system 100 was triggered to intermittently spark (i.e., generate NO) after U46619 was administered for 30 minutes. The electrodes 36 were fabricated from iridium-platinum. The controller 33 was configured to spark the electrodes 36 only during the first 0.8 seconds of inspiration for 4 minutes using the following settings: B=35, N=25, P=240 μs; and H=100 μs and then the controller 33 stopped the NO generator 102, The test was performed when 21% oxygen was supplied in the inspiratory line 18, when 50% oxygen was supplied in the inspiratory line 18, and when NO was supplied to the anesthetized lamb from a gas cylinder.
Also, the reduction in PAP and PVRI for the NO produced by the NO generator 102 was similar to the reduction in PAP and PVRI for NO supplied and diluted from the compressed gas cylinder. […]

[3] = test system: anesthetized lamb with acute pulmonary hypertension; experiment: Continuous NO generation with respiratory system 100 (NO generator 102) in anesthetized lambs with U46619-induced pulmonary hypertension
Excerpt: as §1, §2
The respiratory system 100 was tested with an anesthetized lamb as the patient 11. A baseline (BL) was generated then the NO generator 102 of the respiratory system 100 was triggered to continuously spark (i.e., generate NO) after U46619 was administered for 30 minutes. The electrodes 36 were fabricated from iridium-platinum. Once triggered, the controller 33 was configured to spark the electrodes 36 for 4 minutes using the following settings: B=35, N=25, P=240 μs; and H=100 μs, which produced approximately 40 ppm of NO, and then the controller 33 stopped the NO generator 102. The test was performed when 21% oxygen was supplied in the inspiratory line 18, when 50% oxygen was supplied in the inspiratory line 18, and when NO was supplied to the anesthetized lamb diluted from a compressed gas cylinder.
Also, the reduction in PAP and PVRI for the NO produced by the NO generator 102 was similar to the reduction in PAP and PVRI for the NO supplied by the gas cylinder. […]

[4] = NO produced by NO generator 14, continuous sparking, 4 minutes
[5] = inhaled NO approximately 40 ppm continuously produced by NO generator 14 for 4 minutes, breathing 21% and 50% oxygen
[6] = NO produced by NO generator 102, intermittent sparking
[7] = NO produced by NO generator 102 only during first 0.8 seconds of inspiration, breathing 21% and 50% oxygen
[8] = NO produced by NO generator 102, continuous sparking, 4 minutes
[9] = inhaled NO approximately 40 ppm continuously produced inline by NO generator 102 for 4 minutes, breathing 21% and 50% oxygen

## [N]=O [NO, nitric oxide]
[1]; [4]
  reduction in PAP compared with NO supplied at the same level by dilution from the gas cylinder: similar
  reduction in PVRI compared with NO supplied at the same level by dilution from the gas cylinder: similar
[1]; [5]
  mean pulmonary artery pressure (PAP): rapidly reduced
  pulmonary vascular resistance index (PVRI): rapidly reduced
[2]; [6]
  reduction in PAP compared with NO supplied and diluted from the compressed gas cylinder: similar
  reduction in PVRI compared with NO supplied and diluted from the compressed gas cylinder: similar
[2]; [7]
  mean pulmonary artery pressure (PAP): rapidly reduced
  pulmonary vascular resistance index (PVRI): rapidly reduced
[3]; [8]
  reduction in PAP compared with NO supplied by the gas cylinder: similar
  reduction in PVRI compared with NO supplied by the gas cylinder: similar
[3]; [9]
  mean pulmonary artery pressure (PAP): rapidly reduced
  pulmonary vascular resistance index (PVRI): rapidly reduced
